We go through 32 compounds from ChEMBL document CHEMBL1955745, “Synthesis and in vitro antitumor activity of asperphenamate derivatives as autophagy inducer” (Bioorg Med Chem Lett, 2012).

One series has as its system MCF7. Nature of the series: Antiproliferative activity against human MCF7 cells after 3 days by MTT assay. Format: functional, cell-based. To be noted: MCF7, 72 h. (Tetrazolium assays rely on reduction of a dye to a coloured formazan, in cell work by metabolically active cells.)
For a further series, the system named is HeLa. Nature of the series: Antiproliferative activity against human HeLa cells after 3 days by MTT assay. The class given is functional, cell-based. To be noted: 72 h.
The test system of the next series is Bel-7402. Nature of the series: Antiproliferative activity against human Bel7402 cells after 3 days by MTT assay. To be noted: Bel-7402, 72 h. Format: functional, cell-based.
Series [1] can be described thus: Thermodynamic solubility of the compound in phosphate buffer at pH 7.4 at 1 mg after 10 mins by HPLC -UV analysis. The class given is physicochemical. To be noted: read-out: Therm_solubility.

In brackets after ≈: the same amount, converted by molar mass.

In the case of `O=C(N[C@H](COC(=O)[C@@H](Cc1ccccc1)NC(=O)c1ccccc1OCc1ccccc1)Cc1ccccc1)c1ccccc1`, the IC50 (usually the midpoint of a concentration-inhibition curve) in the series on MCF7 was determined as 42.2 µM; in the series on HeLa, 24.6 µM; in the series on Bel-7402, 31.8 µM. The solubility thermodynamic at 10 min in series [1] was 42.6 µg/mL (≈ 69.5 µM).
The matching figures for `O=C(N[C@H](COC(=O)[C@@H](Cc1ccccc1)NC(=O)c1ccccc1)Cc1ccccc1)c1ccccc1`: > 100 µM, > 100 µM, > 100 µM and 3.21 µg/mL (≈ 6.34 µM).
With `O=C(N[C@@H](COC(=O)[C@@H](Cc1ccccc1)NC(=O)c1cccc(O)c1)Cc1ccccc1)c1ccccc1`, the IC50 with MCF7 stood at 55.3 µM; in the series on HeLa, 63.4 µM; in the series with Bel-7402, 49.9 µM.
The matching figures for `CC(=O)N[C@@H](COC(=O)[C@@H](Cc1ccccc1)NC(=O)c1ccccc1)Cc1ccccc1`: > 100 µM, > 100 µM and > 100 µM.
For `O=C(N[C@H](COC(=O)[C@@H](Cc1ccccc1)NC(=O)c1ccccc1O)Cc1ccccc1)c1ccccc1`, the figures for the IC50 in the series on MCF7, in the series with HeLa and in the series on Bel-7402 were 11.9 µM, 15.2 µM and 14.5 µM, respectively. Also, in series [1], the solubility thermodynamic at 10 min amounted to 77.4 µg/mL (≈ 148 µM).
In the case of `CC(=O)N[C@H](Cc1ccccc1)C(=O)OC[C@@H](Cc1ccccc1)NC(=O)c1ccccc1`, the half-maximal inhibitory concentration (IC50) in the series on MCF7, in the series on HeLa and in the series with Bel-7402 was > 100 µM throughout.
`CC(=O)N[C@@H](COC(=O)[C@H](Cc1ccccc1)NC(=O)c1ccccc1)Cc1ccccc1`: the concentration for half-maximal inhibition (IC50) in the series on MCF7, with HeLa and in the series on Bel-7402 was > 100 µM each time.
On to `O=C(Cc1ccccc1OCc1ccccc1)N[C@H](Cc1ccccc1)C(=O)OC[C@H](Cc1ccccc1)NC(=O)c1ccccc1`, for which the figures for the IC50 in the series on MCF7, in the series with HeLa and in the series on Bel-7402 were 28.8 µM, 25.5 µM and 37.8 µM, respectively. Further, in series [1], the solubility thermodynamic at 10 min worked out at 135 µg/mL (≈ 216 µM).
The matching figures for `O=C(N[C@H](COC(=O)[C@H](Cc1ccccc1)NC(=O)c1ccccc1)Cc1ccccc1)c1ccccc1` [ASPERPHENAMATE]: 94.8 µM, > 100 µM, > 100 µM and 8.85 µg/mL (≈ 17.5 µM).
On to `O=C(N[C@@H](COC(=O)[C@H](Cc1ccccc1)NC(=O)c1ccccc1)Cc1ccccc1)c1ccccc1`, for which the IC50 in the series on MCF7, in the series on HeLa and in the series with Bel-7402 was > 100 µM throughout.
On to `O=C(Cc1ccc(O)cc1)N[C@H](Cc1ccccc1)C(=O)OC[C@H](Cc1ccccc1)NC(=O)c1ccccc1`, for which the half-maximal inhibitory concentration (IC50) in the series on MCF7, in the series with HeLa and with Bel-7402 was > 100 µM in each case. Moreover, in series [1], the solubility thermodynamic at 10 min worked out at 295 µg/mL (≈ 550 µM).
Regarding `CC(=O)N[C@@H](Cc1ccccc1)C(=O)OC[C@@H](Cc1ccccc1)NC(=O)c1ccccc1`, the IC50 in the series on MCF7, in the series on HeLa and with Bel-7402 was > 100 µM in each case.
Take `CC(=O)N[C@H](COC(=O)[C@@H](Cc1ccccc1)NC(=O)c1ccccc1)Cc1ccccc1`: the concentration for half-maximal inhibition (IC50) was 79.5 µM with MCF7, > 100 µM in the series with HeLa and 89 µM with Bel-7402. The solubility thermodynamic at 10 min in series [1] amounted to 79.7 µg/mL (≈ 179 µM).
Take `O=C(Cc1ccccc1O)N[C@@H](Cc1ccccc1)C(=O)OC[C@@H](Cc1ccccc1)NC(=O)c1ccccc1`: the figures for the IC50 with MCF7, in the series on HeLa and in the series on Bel-7402 were 39.2 µM, 27.9 µM and 33.6 µM, respectively.
As for `O=C(N[C@@H](COC(=O)[C@@H](Cc1ccccc1)NC(=O)c1ccccc1)Cc1ccccc1)c1ccccc1`, the IC50 with MCF7, in the series on HeLa and in the series with Bel-7402 was > 100 µM throughout.
Regarding `C[C@H](NC(=O)c1ccccc1)C(=O)OC[C@@H](Cc1ccccc1)NC(=O)c1ccccc1`, the IC50 in the series on MCF7, with HeLa and in the series with Bel-7402 was > 100 µM in each case.
Consider `C[C@H](NC(=O)c1ccccc1)C(=O)OC[C@H](Cc1ccccc1)NC(=O)c1ccccc1`, for which the IC50 in the series on MCF7, with HeLa and in the series with Bel-7402 was > 100 µM each time. In addition, the solubility thermodynamic at 10 min in series [1] was determined as 329 µg/mL (≈ 764 µM).
As for `O=C(N[C@H](COC(=O)[C@H](Cc1ccccc1)NC(=O)c1cccc(O)c1)Cc1ccccc1)c1ccccc1`, the concentration for half-maximal inhibition (IC50) in the series on MCF7, in the series with HeLa and in the series on Bel-7402 was > 100 µM each time. For the same compound, the solubility thermodynamic at 10 min in series [1] came to 1590 µg/mL (≈ 3040 µM).
As to `O=C(Cc1ccc(O)cc1)N[C@H](Cc1ccccc1)C(=O)OC[C@@H](Cc1ccccc1)NC(=O)c1ccccc1`, the figures for the half-maximal inhibitory concentration (IC50) in the series on MCF7, in the series with HeLa and in the series on Bel-7402 were 52.5 µM, 42.8 µM and 70.9 µM, respectively.
The matching figures for `O=C(Cc1ccccc1O)N[C@H](Cc1ccccc1)C(=O)OC[C@@H](Cc1ccccc1)NC(=O)c1ccccc1`: 18.4 µM, 19.5 µM and 29.7 µM.
The matching figures for `O=C(Cc1ccccc1OCc1ccccc1)N[C@@H](Cc1ccccc1)C(=O)OC[C@@H](Cc1ccccc1)NC(=O)c1ccccc1`: 28.2 µM, 58.8 µM and 70.6 µM.
The matching figures for `O=C(N[C@@H](COC(=O)[C@H](Cc1ccccc1)NC(=O)c1ccccc1O)Cc1ccccc1)c1ccccc1`: 42.4 µM, 42.5 µM and 41.2 µM.
Regarding `O=C(N[C@@H](COC(=O)[C@H](Cc1ccccc1)NC(=O)c1ccccc1OCc1ccccc1)Cc1ccccc1)c1ccccc1`, the IC50 in the series on MCF7 amounted to 85.8 µM; in the series with HeLa it was 72.5 µM; with Bel-7402, 71.7 µM.
The matching figures for `O=C(N[C@@H](COC(=O)[C@@H](Cc1ccccc1)NC(=O)c1ccccc1OCc1ccccc1)Cc1ccccc1)c1ccccc1`: 70.3 µM, 54.4 µM and 41.1 µM.
The matching figures for `O=C(N[C@@H](COC(=O)[C@@H](Cc1ccccc1)NC(=O)c1ccccc1O)Cc1ccccc1)c1ccccc1`: 36.3 µM, 42.9 µM and 38.1 µM.
Take `C[C@H](COC(=O)[C@H](Cc1ccccc1)NC(=O)c1ccccc1)NC(=O)c1ccccc1`: the IC50 with MCF7, in the series with HeLa and with Bel-7402 was > 100 µM in each case.
With `O=C(N[C@@H](COC(=O)[C@H](Cc1ccccc1)NC(=O)c1cccc(O)c1)Cc1ccccc1)c1ccccc1`, the IC50 with MCF7, with HeLa and in the series with Bel-7402 was > 100 µM each time.
Regarding `O=C(Cc1ccc(O)cc1)N[C@@H](Cc1ccccc1)C(=O)OC[C@@H](Cc1ccccc1)NC(=O)c1ccccc1`, the IC50 in the series on MCF7, with HeLa and with Bel-7402 was > 100 µM each time.
Take `O=C(N[C@@H](COC(=O)[C@@H](Cc1ccccc1)NC(=O)c1ccc(O)cc1)Cc1ccccc1)c1ccccc1`: the IC50 is 32.8 µM with MCF7, 52.1 µM with HeLa and 51.4 µM in the series with Bel-7402.
The matching figures for `O=C(N[C@@H](COC(=O)[C@H](Cc1ccccc1)NC(=O)c1ccc(O)cc1)Cc1ccccc1)c1ccccc1`: 59.7 µM, 62.9 µM and 55.6 µM.
The matching figures for `C[C@@H](NC(=O)c1ccccc1)C(=O)OC[C@@H](Cc1ccccc1)NC(=O)c1ccccc1`: > 100 µM, > 100 µM and > 100 µM.
The matching figures for `C[C@H](COC(=O)[C@@H](Cc1ccccc1)NC(=O)c1ccccc1)NC(=O)c1ccccc1`: > 100 µM, > 100 µM and > 100 µM.
